# Results: patent US20090318399A1, “PHARMACEUTICAL COMPOSITION AND EXTRACT OF PORIA FOR TREATING A DISEASE INDUCED FROM IMMUNE DISORDER” (Sinphar Pharmaceutical Co., Ltd., priority 2008, published 2009)
# Tested on: immune cells in BALF of OVA-sensitized mice
# Test: Percentage of subpopulation of immune cells in BALF
# Assay type: in vivo, BALB/c mice
# Conditions: Pred group: 0.1 mg Prednisolone per day for 5 days; % of total BALF cells; mean±SD
# From the text: In this example the mice were induced to become allergic by using ovalbumin (OVA) as an allergen, and the mice were confirmed suffering the induced asthma from the appearance of OVE-specific IgE antibody in the mice. Mice in different groups were fed with a Poria extract or pure lanostane compound during the experimental period, and each mouse was subjected to an airway hyperresponsiveness test after one-month feeding, from which an important index reflecting the severe degree of the asthma of the mouse was determined. In this example different immune cells in bronchoalveolar lavage fluid (BALF) of the mice were also observed as to whether they particularly eosinophils and neutrophils were affected. Further, a chemoattractant factor, Eotaxin, was an important observation factor in this example for observing whether the secretion of cytokines changed dramatically.
# (1) Experimental animal: Inbred BALB/c female mice were maintained by standard laboratory chow ad libitum. Room temperature was maintained at 19-24° C. and relative humidity at 50-70%. […]
# As all groups of mice had finished of AHR analysis, they were sacrificed on next day. […] The total cell numbers were determined with 0.5 ml CM-10, wherein the density of cells was adjusted to 3×10^5 cells/ml. […] Two hundreds of leukocytes were counted on each slide, which includes four different cells, eosinophil, neutrophil, lymphocyte and monocyte. […]
compound,measurement,value
"C[C@]12C=CC(=O)C=C1CC[C@@H]1[C@@H]2[C@@H](O)C[C@@]2(C)[C@H]1CC[C@]2(O)C(=O)CO [Pred, Prednisolone]",Monocyte % in BALF,13.3 ± 7.8%
same,Neutrophil % in BALF,0.8 ± 0.8%
